Measurements as given in patent publication US3971757A, “3-Alkyl-4-oxo-imidazolidines and their 1-oxyls” (Ciba-Geigy Corporation, priority 1973, dated 1976).

Columns and labels:
[1] = Solubility in polyethylene sheets (visual examination for undissolved constituents); format: physicochemical; conditions: 1 mm sheets; for Solubility 0.1%: 0.1 part in 100 parts polyethylene (density 0.917); for Solubility 0.3%: 0.3 part in 100 parts polyethylene (density 0.917)
Protocol: (§1) 100 Parts of polyethylene having a density of 0.917 are homogeneously mixed in a Brabender plastograph with 0.1 and 0.3 parts, respectively, of a light-stabilising agent of formula I at 180°C for 10 minutes. The resulting mixture is moulded in a platen press at 170°C to give 1 mm thick sheets, and these are then examined visually for undissolved constituents. The sheets are suspended at room temperature and periodically examined for efflorescence phenomena.

[2] = Compatibility with polyethylene sheets (efflorescence at room temperature); format: physicochemical; conditions: 1 mm sheets; for Compatibility 0.1% (number of days over which no efflorescence phenomena are detectable): 0.1 part in 100 parts polyethylene; for Compatibility 0.3% (number of days over which no efflorescence phenomena are detectable): 0.3 part in 100 parts polyethylene
Protocol: as §1
*Compatibility: number of days over which no efflorescence phenomena are […]

[3] = Light stabilization of polypropylene film, carbonyl (CO) extinction on exposure in Xenotest 150; conditions: 0.25 part per 100 parts polypropylene, 0.1 mm film, with 0.2 part antioxidant, no light stabilizer: 0.300 at 1,000 hours
Protocol: 100 parts of polypropylene powder (Moplen, fibre grade, from Messrs. Montedison) are homogenised with 0.2 part of β-(3,5-di-tert-butyl-4-hydroxyphenyl)-propionic acid octadecyl ester as the antioxidant and 0.25 part of a light stabilizer from Table 2 below, for 10 minutes in a Brabender plastograph at 200°C. The mass thus obtained is taken from the kneader as rapidly as possible and is pressed in a toggle press to give 2 - 3 mm thick sheets. A part of the pressed blank obtained is cut out and pressed between two high gloss hard aluminium foils for 6 minutes at 260°C and 12 tons pressure, using a manual hydraulic laboratory press, to give an 0.5 mm thick film which is immediately chilled in cold water. The 0.1 mm thick test film is produced from this 0.5 mm film under exactly the same conditions. Pieces of 60 × 44 mm are now punched from the 0.1 mm thick film and exposed in the Xenotest 150. At regular intervals of time, these test specimens are taken from the light exposure apparatus and examined for their carbonyl content in an IR-spectrophotometer. The increase in the carbonyl extinction during exposure to light is a measure of the photo-oxidative degradation of the polymer [see L. Balaban et al., J. Polymer Sci. Part C, 22, 1059-1071 (1969); J. F. Heacock, J. Polymer Sci. Part A-1, 22, 2921-34 (1969); D. J. Carlsson and DM. Wiles, Macromolecules 2,587-606 (1969)] and is, according to experience, associated with a deterioration of the mechanical properties of the polymer. Thus, for example, the film stabilised with antioxidant only is completely brittle when it reaches a carbonyl extinction of approx. 0.300. The protective action of the light stabilizers according to the invention can be seen from the following Table 3: […]

[4] = Light stabilization of polystyrene sheets, yellowing factor after exposure in Xenotest 150; conditions: exposed 2,000 hours in Xenotest 150; 0.25 part per 100 parts polystyrene, 2 mm sheets; no light stabilizer: 20.0
Protocol: 100 parts of polystyrene granules are mixed dry with 0.25 part of a light stabilizer from Table 4 below and the mixture is regranulated in an extruder and subsequently moulded on an injection moulding machine to give 2 mm thick sheets. The sheets obtained are exposed for 2,000 hours in the Xenotest 150 apparatus and their yellowing is determined as follows, from the yellowing factor: [formula] wherein Δ T denotes the loss in transmission at wavelengths 420 and 680 nm respectively, which has occurred during exposure, and T(560) denotes the transmission value in percent of the unexposed sample at 560 nm.

| Structure (SMILES) | Solubility 0.1% [1] | Solubility 0.3% [1] | Compatibility 0.1% (number of days over which no efflorescence phenomena are detectable) [2] [days] | Compatibility 0.3% (number of days over which no efflorescence phenomena are detectable) [2] [days] | CO extinction (5.85 μ) ([3]; exposure time 6,000 hours) | Y.F. (yellowing factor) [4] | CO extinction (5.85 μ) ([3]; exposure time 5,000 hours) |
| --- | --- | --- | --- | --- | --- | --- | --- |
| CCCCCCCCN1C(=O)C2(CCCCC2)NC12CCCCC2 [III] | dissolv. | dissolv. | 200 | 200 |  |  |  |
| C=CCN1C(=O)C2(CCCCC2)NC12CCCCC2 [II] | dissolv. | dissolv. | 200 | 200 |  |  |  |
| CCCCCCCCCCCCCCCCCCN1C(=O)C2(CCCCC2)NC12CCCCC2 [IV] | dissolv. | dissolv. | 200 | 200 |  |  |  |
| O=C1N(Cc2ccccc2)C2(CCCCC2)NC12CCCCC2 [I] |  |  |  |  | 0.010 | 4.5 |  |
| CCCCCCCCOC(=O)CN1C(=O)C2(CCCCC2)NC12CCCCC2 [VIII] | dissolv. | dissolv. | 200 | 200 |  |  |  |
| O=C1N(CCCCN2C(=O)C3(CCCCC3)NC23CCCCC3)C2(CCCCC2)NC12CCCCC2 [VI] |  |  |  |  | 0.010 | 5.5 |  |
| O=C(CN1C(=O)C2(CCCCC2)NC12CCCCC2)OCC(COC(=O)CN1C(=O)C2(CCCCC2)NC12CCCCC2)(COC(=O)CN1C(=O)C2(CCCCC2)NC12CCCCC2)COC(=O)CN1C(=O)C2(CCCCC2)NC12CCCCC2 [XI] |  |  |  |  |  |  | 0.010 |
